Results taken from patent publication US9732103B2 (priority 2014, dated 2017).

These compounds were tested against Human factor D (Homo sapiens (Human), UniProt P00746). Details: not given.
Type: biochemical

Sequence of Human factor D (P00746 26-253 limits assumed): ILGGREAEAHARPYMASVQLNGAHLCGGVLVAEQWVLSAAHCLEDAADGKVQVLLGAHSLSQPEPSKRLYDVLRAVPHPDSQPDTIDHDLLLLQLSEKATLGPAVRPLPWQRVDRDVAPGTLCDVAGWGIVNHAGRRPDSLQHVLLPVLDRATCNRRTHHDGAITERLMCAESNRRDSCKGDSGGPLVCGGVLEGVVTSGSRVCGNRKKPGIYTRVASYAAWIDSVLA

SMILES	IC50
CC(=O)c1cn(CC(=O)Oc2ccc3c(c2)c(C(C)=O)cn3CC(=O)N2C[C@H](F)C[C@H]2C(=O)NCc2cccc(Cl)c2F)c2ccc(O)cc12 [Compound 1, 3-acetyl-1-(2-((2S,4R)-2-(3-chloro-2-fluorobcnzylcarbamoyl)-4-fluoropyrrolidin-1-yl)-2-oxoethyl)-1H-indol-5-yl 2-(3-acctyl-5-hydroxy-1H-indol-1-yl)acctate]	< 1000 nM
CC(=O)c1cn(CC(=O)N2C[C@H](F)C[C@H]2C(=O)NCc2cccc(Cl)c2F)c2ccc(OC(=O)NCc3cscn3)cc12 [Compound 2, 3-acctyl-1-(2-((2S,4R)-2-(3-chloro-2-fluorobenzylcarbamoyl)-4-fluoropyrrolidin-1-yl)-2-oxoethyl)-1H-indol-5-yl thiazol-4-ylmethylcarbamate]	< 1000 nM
CC(=O)c1cn(CC(=O)N2C[C@H](F)C[C@H]2C(=O)NCc2cccc(Cl)c2F)c2cc(OC(=O)NCc3cscn3)ccc12 [Compound 3, 3-acctyl-1-(2-((2S,4R)-2-(3-chloro-2-fluorobenzylcarbamoyl)-4-fluoropyrrolidin-1-yl)-2-oxoethyl)-1H-indol-6-yl thiazol-4-ylmethylcarbamate]	< 1000 nM
CC(=O)c1cn(CC(=O)N2C[C@H](F)C[C@H]2C(=O)NCc2cccc(Cl)c2F)c2cc(OC(=O)NCc3nn[nH]n3)ccc12 [Compound 4, 3-acetyl-1-(2-((2S,4R)-2-(3-chloro-2-fluorobenzylcarbamoyl)-4-fluoropyrrolidin-1-yl)-2-oxoethyl)-1H-indol-6-yl (2H-tetrazol-5-yl)methylcarbamate]	< 1000 nM
CC(=O)c1cn(CC(=O)N2C[C@H](F)C[C@H]2C(=O)NCc2cccc(Cl)c2F)c2cc(OC(=O)NCCc3nn[nH]n3)ccc12 [Compound 5, 3-acctyl-1-(2-((2S,4R)-2-(3-chloro-2-fluorobenzylcarbamoyl)-4-fluoropyrrolidin-1-yl)-2-oxoethyl)-1H-indol-6-yl 2-(2H-tetrazol-5-yl)ethylcarbamate]	< 1000 nM
CC(=O)c1cn(CC(=O)N2C[C@H](F)C[C@H]2C(=O)NCc2cccc(Cl)c2F)c2cc(OC(=O)NCCP(=O)(O)O)ccc12 [Compound 6, 2-((3-acctyl-1-(2-((2S,4R)-2-(3-chloro-2-fluorobenzylcarbamoyl)-4-fluoropyrrolidin-1-yl)-2-oxoethyl)-1H-indol-6-yloxy)carbonylamino) ethylphosphonic acid]	< 1000 nM
CC(=O)c1cn(CC(=O)N2C[C@H](F)C[C@H]2C(=O)NCc2cccc(Cl)c2F)c2cc(OC(=O)NCc3ccc(B(O)O)cc3)ccc12 [Compound 7, 4-(((3-acetyl-1-(2-((2S,4R)-2-(3-chloro-2-fluorobenzylcarbamoyl)-4-fluoropyrrolidin-1-yl)-2-oxoethyl)-1H-indol-6-yloxy)carbonylamino)methyl)phenylboronic acid]	< 1000 nM
CC(=O)c1cn(CC(=O)N2C[C@H](F)C[C@H]2C(=O)NCc2cccc(Cl)c2F)c2ccc(OC(=O)NC3CC3)cc12 [Compound 8, 3-acetyl-1-(2-((2S,4R)-2-(3-chloro-2-fluorobenzylcarbamoyl)-4-fluoropyrrolidin-1-yl)-2-oxoethyl)-1H-indol-5-yl cyclopropylcarbamate]	< 1000 nM
CC(=O)c1cn(CC(=O)N2C[C@H](F)C[C@H]2C(=O)NCc2cccc(Cl)c2F)c2ccc(OC(=O)NCc3cocn3)cc12 [Compound 9, 3-acctyl-1-(2-((2S,4R)-2-(3-chloro-2-fluorobenzylcarbamoyl)-4-fluoropyrrolidin-1-yl)-2-oxoethyl)-1H-indol-5-yl oxazol-4-ylmethylcarbamate]	< 1000 nM
CC(=O)c1cn(CC(=O)N2C[C@H](F)C[C@H]2C(=O)NCc2cccc(Cl)c2F)c2ccc(OC(=O)NCc3nnn[nH]3)cc12 [Compound 10, 3-acetyl-1-(2-((2S,4R)-2-(3-chloro-2-fluorobenzylcarbamoyl)-4-fluoropyrrolidin-1-yl)-2-oxoethyl)-1H-indol-5-yl (1H-tetrazol-5-yl)methylcarbamate]	< 1000 nM
CC(=O)c1cn(CC(=O)N2C[C@H](F)C[C@H]2C(=O)NCc2cccc(Cl)c2F)c2cc(C(=O)C[S+](C)[O-])ccc12 (stereo partly drawn) [Compound 11, (2S,4R)-1-(2-(3-acetyl-6-(2-(methylsulfinyl)acetyl)-1H-indol-1-yl)acetyl)-N-(3-chloro-2-fluorobenzyl)-4-fluoropyrrolidine-2-carboxamide]	< 1000 nM
CC(=O)c1cn(CC(=O)N2C[C@H](F)C[C@H]2C(=O)NCc2cccc(Cl)c2F)c2ccc(OC(=O)N3CCOCC3)cc12 [Compound 12, 3-acetyl-1-(2-((2S,4R)-2-(3-chloro-2-fluorobenzylcarbamoyl)-4-fluoropyrrolidin-1-yl)-2-oxoethyl)-1H-indol-5-yl morpholine-4-carboxylate]	< 1000 nM
CC(=O)c1cn(CC(=O)N2C[C@H](F)C[C@H]2C(=O)NCc2cccc(Cl)c2F)c2ccc(OC(=O)NCc3ncccn3)cc12 [Compound 13, 3-acctyl-1-(2-((2S,4R)-2-(3-chloro-2-fluorobenzylcarbamoyl)-4-fluoropyrrolidin-1-yl)-2-oxoethyl)-1H-indol-5-yl pyrimidin-2-ylmethylcarbamate]	< 1000 nM
CC(=O)c1cn(CC(=O)N2C[C@H](F)C[C@H]2C(=O)NCc2cccc(Cl)c2F)c2ccc(OC(=O)NCCc3nn[nH]n3)cc12 [Compound 14, 3-acctyl-1-(2-((2S,4R)-2-(3-chloro-2-fluorobenzylcarbamoyl)-4-fluoropyrrolidin-1-yl)-2-oxoethyl)-1H-indol-5-yl 2-(2H-tetrazol-5-yl)ethylcarbamate]	< 1000 nM
CC(=O)c1cn(CC(=O)N2C[C@H](F)C[C@H]2C(=O)NCc2cccc(Cl)c2F)c2ccc(OC(=O)NCCc3c[nH]cn3)cc12 [Compound 15, 3-acctyl-1-(2-((2S,4R)-2-(3-chloro-2-fluorobenzylcarbamoyl)-4-fluoropyrrolidin-1-yl)-2-oxoethyl)-1H-indol-5-yl 2-(1H-imidazol-4-yl)ethylcarbamate]	< 1000 nM

Same assay, conditions: factor D 80 nM, substrate Z-L-Lys-SBzl 100 μM, DTNB, pH 7.5

SMILES	IC50
CC(=O)c1cn(CC(=O)N2C[C@H](F)C[C@H]2C(=O)NCc2cccc(Cl)c2F)c2ccc(OC(=O)N3CCNCC3)cc12 [Compound 16, 3-acetyl-1-(2-((2S,4R)-2-(3-chloro-2-fluorobenzylcarbamoyl)-4-fluoropyrrolidin-1-yl)-2-oxoethyl)-1H-indol-5-yl piperazine-1-carboxylate]	< 1000 nM
